Data taken from ChEMBL document CHEMBL4376834, “Discovery of 4H-Chromen-4-one Derivatives as a New Class of Selective Rho Kinase (ROCK) Inhibitors, which Showed Potent Activity in ex Vivo Diabetic Retinopathy Models” (J Med Chem, 2019).

Experiments:
[1] = target: Serine/threonine-protein kinase SIK1 (Homo sapiens, UniProt P57059); test: Inhibition of recombinant human SIK (1 to 281 residues) using AMARAASAAALARas substrate incubated for 40 mins in presence of [gamma33P]ATP by radiometric scintillation counting analysis
[2] = target: Testis-specific serine/threonine-protein kinase 1 (Homo sapiens, UniProt Q9BXA7); test: Inhibition of recombinant full-length human TSSK1 using KKKVSRSGLYRSP as substrate incubated for 40 mins in presence of [gamma33P]ATP by radiometric scintillation counting analysis
[3] = target: Rho-associated protein kinase 1 (Homo sapiens, UniProt Q13464); test: Inhibition of recombinant human ROCK1 (17 to 535 residues) using […] as substrate incubated for 40 mins in presence of [gamma-33P]ATP and 10 uM ATP by radiometric scintillation counting analysis
[4] = target: Cyclin-dependent kinase-like 3 (Homo sapiens, UniProt Q8IVW4); test: Inhibition of recombinant full length human CDKL3 using RRRFRPASPLRGPPK as substrate incubated for 120 mins in presence of [gamma-33ATP] by radiometric scintillation counting analysis
[5] = target: Rho-associated protein kinase 2 (Homo sapiens, UniProt O75116); test: Inhibition of recombinant human ROCK2 (11 to 552 residues) using KEAKEKRQEQIAKR as substrate incubated for 40 mins in presence of [gamma-33P]ATP and 10 uM ATP by radiometric scintillation counting analysis
[6] = target: Receptor-type tyrosine-protein kinase FLT3 (Homo sapiens, UniProt P36888, D835Y); test: Inhibition of recombinant human FLT3 D835Y mutant (564 to end residues) using EAIYAAPFAKKK as substrate after 40 mins in presence of [gamma-33ATP] by radiometric scintillation counting analysis
[7] = target: cGMP-dependent protein kinase 1 (Homo sapiens, UniProt Q13976); test: Inhibition of recombinant full length human PKG1alpha using RRRLSFAEPG as substrate incubated for 40 mins in presence of [gamma-33P]ATP and 10 uM ATP by radiometric scintillation counting analysis
[8] = target: Testis-specific serine/threonine-protein kinase 3 (Homo sapiens, UniProt Q96PN8); test: Inhibition of recombinant full-length human TSSK3 using AMARAASAAALAR as substrate incubated for 40 mins in presence of [gamma33P]ATP by radiometric scintillation counting analysis
[9] = target: Activin receptor type-1-like (Homo sapiens, UniProt P37023); test: Inhibition of human recombinant ALK1 (142 to end residues) using casein as substrate incubated for 40 mins in presence of [gamma-33P]ATP by radiometric scintillation counting analysis
[10] = target: Eukaryotic translation initiation factor 2-alpha kinase 3 (Homo sapiens, UniProt Q9NZJ5); test: Inhibition of human PEK (536 to end residues) using RSRSRSRSRSRSRSR as substrate measured after 40 mins in presence of [gamma33P]ATP by radiometric scintillation counting analysis
Ephrin type-B receptor 1 = Ephrin type-B receptor 1 (Homo sapiens, UniProt P54762); test: Inhibition of recombinant human EphB1 (564 to end residues) using […] as substrate after 40 mins in presence of [gamma-33ATP] by radiometric scintillation counting analysis
[11] = target: Serine/threonine-protein kinase pim-3 (Homo sapiens, UniProt Q86V86); test: Inhibition of recombinant human Pim3 (2 to end residues) using RSRHSSYPAGT as substrate incubated for 40 mins in presence of [gamma33P]ATP by radiometric scintillation counting analysis
[12] = target: Hepatocyte growth factor receptor (Homo sapiens, UniProt P08581, Y1230H); test: Inhibition of recombinant human MET A1209G/V1290L/Y1248H triple mutant (974 to end residues) using KKKGQEEEYVFIE as substrate incubated for 40 mins in presence of [gamma-33ATP by radiometric scintillation counting analysis
[13] = target: Cyclin-dependent kinase-like 1 (Homo sapiens, UniProt Q00532); test: Inhibition of recombinant human CDKL1 (1 to 303 residues) using RRRFRPASPLRGP as substrate incubated for 120 mins in presence of [gamma-33ATP] by radiometric scintillation counting analysis
[14] = target: Tyrosine-protein kinase ABL1 (Homo sapiens, UniProt P00519, M351T); test: Inhibition of human recombinant ABL1 M351T mutant (27 to end residues) using EAIYAAPFAKKK as substrate incubated for 40 mins in presence of [gamma-33P]ATP by scintillation counting based radiometry assay
[15] = target: G protein-coupled receptor kinase 5 (Homo sapiens, UniProt P34947); test: Inhibition of recombinant full length human GRK5 using casein as substrate after 40 mins in presence of [gamma-33ATP] by radiometric scintillation counting analysis
[16] = target: Tyrosine-protein kinase Fer (Homo sapiens, UniProt P16591); test: Inhibition of recombinant human FER (541 to end residues) using KKKSPGEYVNIEF as substrate after 40 mins in presence of [gamma-33ATP] by radiometric scintillation counting analysis
[17] = Inhibition of human PKA using Kemptide as substrate incubated for 40 mins in presence of [gamma-33P]ATP by radiometric scintillation counting analysis
[18] = target: Receptor tyrosine-protein kinase erbB-2 (Homo sapiens, UniProt P04626, G778D); test: Inhibition of recombinant human ERBB2 G778D (676 to end residues) using poly(Glu, Tyr) 4:1 as substrate after 40 mins in presence of [gamma-33ATP] by radiometric scintillation counting analysis
[19] = target: Vascular endothelial growth factor receptor 2 (Homo sapiens, UniProt P35968); test: Inhibition of human recombinant KDR (790 to end residues) using myelin basic protein as substrate after 40 mins by [gamma-33ATP] by radiometric scintillation counting analysis
[20] = target: Platelet-derived growth factor receptor beta (Homo sapiens, UniProt P09619); test: Inhibition of human PDGFRbeta (557 to end residues) using poly(Glu, Tyr) 4:1 as substrate measured after 40 mins in presence of [gamma33P]ATP by radiometric scintillation counting analysis
[21] = target: Fibroblast growth factor receptor 1 (Homo sapiens, UniProt P11362, V561M); test: Inhibition of recombinant human FGFR1 V561M mutant (456 to 765 residues) using GGEEEEYFELVKK as substrate after 40 mins in presence of [gamma-33ATP] by radiometric scintillation counting analysis
[22] = target: Mast/stem cell growth factor receptor Kit (Homo sapiens, UniProt P10721); test: Inhibition of recombinant human C-Kit (544 to end residues) using poly (Glu,Tyr) 4:1 as substrate in presence of [gamma-33ATP] by radiometric scintillation counting analysis
[23] = target: NUAK family SNF1-like kinase 1 (Homo sapiens, UniProt O60285); test: Inhibition of human recombinant ARK5 (2 to end residues) using KKKVSRSGLYRSP as substrate incubated for 40 mins in presence of [gamma-33ATP] by radiometric scintillation counting analysis
Tribbles homolog 2 = Tribbles homolog 2 (Homo sapiens, UniProt Q92519); test: Inhibition of recombinant full-length human TRB2 using RRRFRPASPLRGP as substrate incubated for 120 mins in presence of [gamma33P]ATP by radiometric scintillation counting analysis

Sequence of Tyrosine-protein kinase Fer (P16591 whole entry): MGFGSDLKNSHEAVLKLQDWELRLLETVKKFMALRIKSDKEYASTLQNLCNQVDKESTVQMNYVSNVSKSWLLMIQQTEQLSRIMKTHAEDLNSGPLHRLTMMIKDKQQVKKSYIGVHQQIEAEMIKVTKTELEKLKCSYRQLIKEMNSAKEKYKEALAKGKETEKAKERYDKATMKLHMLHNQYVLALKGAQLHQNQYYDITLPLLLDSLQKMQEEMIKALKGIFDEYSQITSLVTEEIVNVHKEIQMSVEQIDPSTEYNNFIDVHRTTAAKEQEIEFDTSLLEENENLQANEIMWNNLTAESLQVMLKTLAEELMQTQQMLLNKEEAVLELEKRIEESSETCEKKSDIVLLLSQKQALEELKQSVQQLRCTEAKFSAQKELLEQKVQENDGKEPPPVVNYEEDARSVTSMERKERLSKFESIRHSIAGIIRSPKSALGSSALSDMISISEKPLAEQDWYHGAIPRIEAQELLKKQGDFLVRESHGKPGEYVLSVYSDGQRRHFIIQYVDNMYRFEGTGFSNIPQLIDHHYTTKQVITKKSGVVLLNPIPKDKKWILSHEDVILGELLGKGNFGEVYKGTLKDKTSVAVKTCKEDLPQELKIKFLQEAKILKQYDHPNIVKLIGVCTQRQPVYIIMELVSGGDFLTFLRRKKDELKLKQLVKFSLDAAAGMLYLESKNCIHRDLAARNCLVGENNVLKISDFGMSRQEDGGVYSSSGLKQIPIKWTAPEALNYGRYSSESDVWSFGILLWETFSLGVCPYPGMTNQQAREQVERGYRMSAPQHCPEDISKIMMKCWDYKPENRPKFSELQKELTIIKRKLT
Sequence of Rho-associated protein kinase 1 (Q13464 whole entry, the tested form may be a part): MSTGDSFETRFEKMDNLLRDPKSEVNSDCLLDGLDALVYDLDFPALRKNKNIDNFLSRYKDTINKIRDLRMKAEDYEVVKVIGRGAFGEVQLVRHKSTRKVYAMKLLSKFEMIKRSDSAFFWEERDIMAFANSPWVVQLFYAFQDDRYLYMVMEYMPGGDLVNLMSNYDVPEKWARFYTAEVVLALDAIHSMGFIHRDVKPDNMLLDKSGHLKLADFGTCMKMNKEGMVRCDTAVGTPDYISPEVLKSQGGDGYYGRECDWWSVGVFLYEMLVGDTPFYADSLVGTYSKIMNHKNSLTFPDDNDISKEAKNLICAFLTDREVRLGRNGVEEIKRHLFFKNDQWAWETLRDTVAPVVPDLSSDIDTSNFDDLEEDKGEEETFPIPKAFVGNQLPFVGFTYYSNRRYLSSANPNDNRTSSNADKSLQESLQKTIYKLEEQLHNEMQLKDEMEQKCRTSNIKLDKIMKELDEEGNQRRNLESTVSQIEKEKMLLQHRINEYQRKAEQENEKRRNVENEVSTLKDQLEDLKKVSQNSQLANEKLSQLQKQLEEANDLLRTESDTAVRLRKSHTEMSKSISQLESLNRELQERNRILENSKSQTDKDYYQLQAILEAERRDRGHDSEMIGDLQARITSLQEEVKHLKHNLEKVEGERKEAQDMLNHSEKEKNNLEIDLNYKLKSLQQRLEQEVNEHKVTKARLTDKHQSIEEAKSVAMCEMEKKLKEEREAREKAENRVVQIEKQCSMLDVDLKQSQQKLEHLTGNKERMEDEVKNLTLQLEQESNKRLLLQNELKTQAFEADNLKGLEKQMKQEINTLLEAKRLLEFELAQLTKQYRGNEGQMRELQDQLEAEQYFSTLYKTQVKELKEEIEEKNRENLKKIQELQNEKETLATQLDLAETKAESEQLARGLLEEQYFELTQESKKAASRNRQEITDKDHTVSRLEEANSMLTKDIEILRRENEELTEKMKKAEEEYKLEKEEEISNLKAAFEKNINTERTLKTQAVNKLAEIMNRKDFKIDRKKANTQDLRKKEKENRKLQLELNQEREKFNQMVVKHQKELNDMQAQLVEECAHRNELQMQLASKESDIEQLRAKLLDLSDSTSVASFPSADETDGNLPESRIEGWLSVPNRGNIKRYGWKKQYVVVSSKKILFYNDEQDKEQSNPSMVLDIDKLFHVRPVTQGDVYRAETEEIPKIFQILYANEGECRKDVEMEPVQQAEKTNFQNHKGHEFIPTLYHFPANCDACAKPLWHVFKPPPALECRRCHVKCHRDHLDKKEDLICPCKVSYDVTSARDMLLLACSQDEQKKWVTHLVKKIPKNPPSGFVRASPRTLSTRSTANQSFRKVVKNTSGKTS
Sequence of Cyclin-dependent kinase-like 1 (Q00532 whole entry, the tested form may be a part): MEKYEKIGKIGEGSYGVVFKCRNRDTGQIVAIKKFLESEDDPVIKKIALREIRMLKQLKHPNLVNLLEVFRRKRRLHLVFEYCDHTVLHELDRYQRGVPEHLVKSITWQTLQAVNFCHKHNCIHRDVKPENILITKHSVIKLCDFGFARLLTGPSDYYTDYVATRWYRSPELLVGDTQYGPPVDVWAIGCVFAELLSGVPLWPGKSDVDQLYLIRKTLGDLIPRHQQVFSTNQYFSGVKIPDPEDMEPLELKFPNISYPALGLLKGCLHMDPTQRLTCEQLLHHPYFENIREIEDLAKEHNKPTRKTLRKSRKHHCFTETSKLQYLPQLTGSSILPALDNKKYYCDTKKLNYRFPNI
Sequence of Serine/threonine-protein kinase SIK1 (P57059 whole entry, the tested form may be a part): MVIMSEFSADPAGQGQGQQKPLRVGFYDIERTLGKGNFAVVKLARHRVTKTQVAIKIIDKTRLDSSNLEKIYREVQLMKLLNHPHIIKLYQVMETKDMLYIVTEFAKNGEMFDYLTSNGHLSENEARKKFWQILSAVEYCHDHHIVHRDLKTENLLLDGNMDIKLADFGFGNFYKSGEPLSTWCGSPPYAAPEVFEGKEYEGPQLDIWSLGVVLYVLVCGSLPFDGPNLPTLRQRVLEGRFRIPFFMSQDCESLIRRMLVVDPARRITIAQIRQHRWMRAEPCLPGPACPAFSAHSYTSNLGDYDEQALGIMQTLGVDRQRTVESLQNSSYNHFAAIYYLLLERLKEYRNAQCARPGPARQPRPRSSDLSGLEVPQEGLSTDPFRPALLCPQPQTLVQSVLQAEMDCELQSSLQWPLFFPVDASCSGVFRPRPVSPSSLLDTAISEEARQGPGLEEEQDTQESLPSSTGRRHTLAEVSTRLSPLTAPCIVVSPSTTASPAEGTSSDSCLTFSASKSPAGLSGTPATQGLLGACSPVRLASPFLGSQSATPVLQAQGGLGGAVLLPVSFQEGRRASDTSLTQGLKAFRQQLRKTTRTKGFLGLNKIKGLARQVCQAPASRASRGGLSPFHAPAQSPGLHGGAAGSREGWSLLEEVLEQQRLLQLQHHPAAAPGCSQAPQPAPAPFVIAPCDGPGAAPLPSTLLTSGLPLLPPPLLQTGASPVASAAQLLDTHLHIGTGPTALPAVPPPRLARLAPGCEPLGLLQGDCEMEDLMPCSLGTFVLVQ
Sequence of Eukaryotic translation initiation factor 2-alpha kinase 3 (Q9NZJ5 whole entry): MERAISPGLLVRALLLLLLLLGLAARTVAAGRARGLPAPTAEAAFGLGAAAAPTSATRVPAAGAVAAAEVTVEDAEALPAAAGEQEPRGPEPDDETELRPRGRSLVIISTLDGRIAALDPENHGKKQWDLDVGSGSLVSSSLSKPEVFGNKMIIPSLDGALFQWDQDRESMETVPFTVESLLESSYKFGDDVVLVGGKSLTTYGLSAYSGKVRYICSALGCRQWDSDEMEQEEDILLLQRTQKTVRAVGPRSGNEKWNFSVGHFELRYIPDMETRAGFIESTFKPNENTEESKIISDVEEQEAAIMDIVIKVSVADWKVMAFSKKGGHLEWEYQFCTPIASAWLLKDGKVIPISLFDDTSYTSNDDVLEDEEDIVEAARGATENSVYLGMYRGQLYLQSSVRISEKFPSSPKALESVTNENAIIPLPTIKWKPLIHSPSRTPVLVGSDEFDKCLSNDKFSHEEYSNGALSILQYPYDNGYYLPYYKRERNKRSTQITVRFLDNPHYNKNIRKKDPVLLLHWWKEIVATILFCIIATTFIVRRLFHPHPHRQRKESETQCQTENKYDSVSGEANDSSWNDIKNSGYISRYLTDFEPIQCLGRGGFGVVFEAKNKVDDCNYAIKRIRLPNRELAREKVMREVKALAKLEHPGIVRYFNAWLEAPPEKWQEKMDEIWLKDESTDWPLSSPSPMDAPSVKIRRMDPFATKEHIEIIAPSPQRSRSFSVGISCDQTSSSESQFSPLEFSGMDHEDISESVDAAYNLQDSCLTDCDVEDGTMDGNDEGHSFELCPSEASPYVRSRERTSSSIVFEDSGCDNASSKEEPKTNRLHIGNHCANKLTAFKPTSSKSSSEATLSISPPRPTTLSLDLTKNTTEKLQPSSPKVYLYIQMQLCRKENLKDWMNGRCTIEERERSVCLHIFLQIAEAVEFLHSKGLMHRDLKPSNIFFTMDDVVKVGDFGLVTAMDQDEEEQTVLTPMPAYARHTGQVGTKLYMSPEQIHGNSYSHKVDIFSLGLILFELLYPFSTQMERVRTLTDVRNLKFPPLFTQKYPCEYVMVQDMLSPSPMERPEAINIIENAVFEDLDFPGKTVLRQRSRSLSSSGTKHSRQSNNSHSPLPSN
Sequence of Cyclin-dependent kinase-like 3 (Q8IVW4 whole entry, the tested form may be a part): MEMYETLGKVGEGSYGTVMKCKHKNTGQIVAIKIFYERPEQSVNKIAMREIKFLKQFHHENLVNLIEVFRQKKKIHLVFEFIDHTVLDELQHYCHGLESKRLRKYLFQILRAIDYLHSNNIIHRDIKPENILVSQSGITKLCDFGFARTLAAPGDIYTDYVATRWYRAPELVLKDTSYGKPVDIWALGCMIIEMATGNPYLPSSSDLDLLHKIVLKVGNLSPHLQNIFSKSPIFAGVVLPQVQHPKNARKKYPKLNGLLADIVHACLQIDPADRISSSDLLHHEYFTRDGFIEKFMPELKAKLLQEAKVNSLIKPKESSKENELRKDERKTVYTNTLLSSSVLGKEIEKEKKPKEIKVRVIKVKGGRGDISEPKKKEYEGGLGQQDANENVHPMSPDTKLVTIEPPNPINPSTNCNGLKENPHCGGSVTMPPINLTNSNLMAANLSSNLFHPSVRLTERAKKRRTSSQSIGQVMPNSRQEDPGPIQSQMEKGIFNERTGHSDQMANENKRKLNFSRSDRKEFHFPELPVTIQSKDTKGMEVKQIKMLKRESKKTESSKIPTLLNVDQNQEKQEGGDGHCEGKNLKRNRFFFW

Structure (SMILES): CN(C)c1ccc(C(=O)Nc2cccc(NC(=O)COc3ccc4c(=O)ccoc4c3)c2)cc1
- IC50 [1]: > 10 µM
- IC50 [2]: > 10 µM
- IC50 [3]: 14 nM
- IC50 [4]: > 10 µM
- IC50 [5]: 3 nM
- IC50 [6]: > 10 µM
- IC50 [7]: 517 nM
- IC50 [8]: > 10 µM
- IC50 [9]: > 10 µM
- IC50 [10]: > 10 µM
- IC50 (Ephrin type-B receptor 1): > 10 µM
- IC50 [11]: > 10 µM
- IC50 [12]: > 10 µM
- IC50 [13]: > 10 µM
- IC50 [14]: > 10 µM
- IC50 [15]: > 10 µM
- IC50 [16]: > 10 µM
- IC50 [17]: > 10 µM
- IC50 [18]: > 10 µM
- IC50 [19]: > 10 µM
- IC50 [20]: > 10 µM
- IC50 [21]: > 10 µM
- IC50 [22]: > 10 µM
- IC50 [23]: > 10 µM
- IC50 (Tribbles homolog 2): > 10 µM
